Non-standard residues stand in square brackets, D forms with d. No end group written: not given here.
Key:
[1] = tested on: EpiAirway™ Cell Membrane (mucosal epithelial cell layer); assay: Transepithelial electrical resistance (TER), EpiAirway in vitro epithelial tissue model; type: cell-based; conditions: for Relative TER Decrease: Table 8, amino acid substitutions; for TER(x)/TER(159) +/− SEM*: mean values from multiple repeats
Description: One “kit” consists of 24 units.
A. Respiratory airway epithelial cells form tight junctions in vivo as well as in vitro, and thereby restrict the flow of solutes across the tissue. These junctions confer a transepithelial resistance of several hundred ohms×cm^2 in excised airway tissues. In the MatTek EpiAirway™ units, the transepithelial electrical resistance (TER) is reported by the manufacturer to be routinely around 1000 ohms×cm^2. […] The porous membrane-bottomed units without cells, conversely, provide only minimal transmembrane resistance (approximately 5-20 ohms×cm^2).
B. Accurate determinations of TER require that the electrodes of the ohmmeter be positioned over a significant surface area above and below the membrane, and that the distance of the electrodes from the membrane be reproducibly controlled. The method for TER determination recommended by MatTek and employed for all experiments herein employs an “EVOM”™ epithelial voltohmmeter and an “ENDOHM”™ tissue resistance measurement chamber from World Precision Instruments, Inc., Sarasota, Fla.
D. Determinations of TER are made with 1.5 mL of PBS in the chamber and 350 μL of PBS in the membrane-bottomed unit being measured. The top electrode is adjusted to a position just above the membrane of a unit containing no cells (but containing 350 μL of PBS) and then fixed to ensure reproducible positioning. The resistance of a cell-free unit is typically 5-20 ohms×cm^2 (“background resistance”).
G. The unit is gently blotted free of excess PBS on its exterior surface only before being placed into the chamber (containing a fresh 1.5 mL aliquot of PBS). An aliquot of 350 μL PBS is added to the unit before the top electrode is placed on the chamber and the TER is read on the EVOM meter.
I. The units are read in the following sequence: all sham-treated controls, followed by all formulation-treated samples, followed by a second TER reading of each of the sham-treated controls. All TER values are reported as a function of the surface area of the tissue.
TER was calculated as: TER=(R1−Rb)×A Where R1 is resistance of the insert with a membrane, Rb is the resistance of the blank insert, and A is the area of the membrane (0.6 cm^2). The effect of pharmaceutical formulations comprising intranasal delivery-enhancing agents, for example, permeabilizing peptides as measured by TER across the EpiAirway™ Cell Membrane (mucosal epithelial cell layer). Permeabilizing peptides are applied to the EpiAirway™ Cell Membrane at a concentration of 1.0 mM. A decrease in TER value relative to the control value (control=approximately 1000 ohms-cm^2; normalized to 100.) indicates a decrease in cell membrane resistance and an increase in mucosal epithelial cell permeability.
The formulation pH was fixed at 4.5.

[2] = tested on: EpiAirway™ Cell Membrane (mucosal epithelial cell layer); assay: Permeation kinetics across the in vitro epithelial tissue model; conditions: for Perm(x)/Perm(159) +/− SEM*: mean values from multiple repeats
Protocol: The EpiAirway™ system was developed by MatTek Corp (Ashland, Mass.) as a model of the pseudostratified epithelium lining the respiratory tract. The epithelial cells are grown on porous membrane-bottomed cell culture inserts at an air-liquid interface, which results in differentiation of the cells to a highly polarized morphology. The apical surface is ciliated with a microvillous ultrastructure and the epithelium produces mucus (the presence of mucin has been confirmed by immunoblotting). The inserts have a diameter of 0.875 cm, providing a surface area of 0.6 cm^2. The cells are plated onto the inserts at the factory approximately three weeks before shipping. One “kit” consists of 24 units.
A. A “kit” of 24 EpiAirway™ units can routinely be employed for evaluating five different formulations, each of which is applied to quadruplicate wells. Each well is employed for determination of permeation kinetics (4 time points), transepithelial electrical resistance (TER). An additional set of wells is employed as controls, which are sham treated during determination of permeation kinetics, but are otherwise handled identically to the test sample-containing units for determinations of transepithelial resistance and viability.
B. In all experiments, the mucosal delivery formulation to be studied is applied to the apical surface of each unit in a volume of 100 μL, which is sufficient to cover the entire apical surface. An appropriate volume of the test formulation at the concentration applied to the apical surface (no more than 100 μL is generally needed) is set aside for subsequent determination of concentration of the active material by ELISA or other designated assay.
D. In order to minimize potential sources of error and avoid any formation of concentration gradients, the units are transferred from one 0.9 mL-containing well to another at each time point in the study. These transfers are made at the following time points, based on a zero time at which the 100 μL volume of test material was applied to the apical surface: 15 minutes, 30 minutes, 60 minutes, and 120 minutes.
F. At the completion of each time point, the medium is removed from the well from which each unit was transferred, and aliquotted into two tubes (one tube receives 700 μL and the other 200 μL) for determination of the concentration of permeated test material and, in the event that the test material is cytotoxic, for release of the cytosolic enzyme, lactate dehydrogenase, from the epithelium. These samples are kept in the refrigerator if the assays are to be conducted within 24 hours, or the samples are subaliquotted and kept frozen at −80° C. until thawed once for assays. Repeated freeze-thaw cycles are to be avoided.
EIA kit (p/n S-1178(EIAH6101) was purchased from Peninsula Laboratories Inc. (Division of BACHEM, San Carlos, Calif., 800-922-1516). 17×120 mm polypropylene conical tubes (p/n 352097, Falcon, Franklin Lakes, N.J.) were used for all sample preparations. Eight standards were used for PTH quantitation. The rest of the assay procedure was the same as the kit inserts.
The instant study was designed to evaluate the effect of PN159 itself or in combination with additional permeation enhancers on PTH permeation. The PN159 concentrations evaluated are 25, 50, and 100 μM. The additional permeation enhancers are 45 mg/ml M-β-CD, 1 mg/ml DDPC, and 1 mg/ml EDTA. Sorbitol was used as a tonicifier (146-190 mM) to adjust the osmolarity of formulations to 220 mOsm/kg. The formulation pH was fixed at 4.5. PTH was chosen as a model peptide in this example. 2 mg/ml PTH was combined with PN159 with or without additional permeation enhancers. The combination was tested using an in vitro epithelial tissue model to monitor PTH permeation, transepithelial electrical resistance (TER), and the cytotoxicity of the formulation by LDH assay.
The effect of PN159 on permeation of MC-4RA was evaluated in this study.

[3] = Table 9, hydrophobic faces, relative to PN159
[4] = Example 7, length changes, relative to PN159
[5] = PN159 analogues compared with PN159
[6] = Table 6, D-amino acid substitutions, relative to PN159

Q: How did the “Relative TER Decrease” value ([1]; relative to PN159) turn out when H-KLALKLALKLNLKAALKLA-NH2 [PN448] was run?
A: The value was 0.4.

Q: For “NH2-KALAALLKKAAKLLAALK-amide (H-KALAALLKKAAKLLAALK-NH2) [PN442]”, which “TER(x)/TER(159) +/− SEM*” value [1, 3] is on record?
A: The value was 0.93 +/− 0.03.

Q: And the “Perm(x)/Perm(159) +/− SEM*” value [2, 3]?
A: Its value is 0.81 +/− 0.03.

Q: How did the “TER(x)/TER(159) +/− SEM*” value [1, 3] turn out when “NH2-KALAALLKKLAKLLAALK-amide (H-KALAALLKKLAKLLAALK-NH2) [PN444]” was run?
A: The value was 0.82 +/− 0.05.

Q: And the “Perm(x)/Perm(159) +/− SEM*” value [2, 3]?
A: The value was 0.41 +/− 0.08.

Q: What does the source list for “NH2-KALKLKAALALLAKLKLA-amide (H-KALKLKAALALLAKLKLA-NH2) [PN424]”?
A: TER(x)/TER(159) +/− SEM* [1, 3]: 0.59 +/− 0.07; Perm(x)/Perm(159) +/− SEM* [2, 3]: 0.20 +/− 0.04

Q: With “NH2-KLAAALLKKAKKLAAALL-amide (H-KLAAALLKKAKKLAAALL-NH2) [PN441]” as the substance, how does the “TER(x)/TER(159) +/− SEM*” value [1, 3] read?
A: Its value is 0.54 +/− 0.04.

Q: What about the “Perm(x)/Perm(159) +/− SEM*” value [2, 3] of the same substance?
A: The value was 0.35 +/− 0.04.

Q: How did the “Perm(x)/Perm(159) +/− SEM*” value [2, 4] turn out when “NH2-KLALKLALKALKAA-amide (H-KLALKLALKALKAA-NH2) [PN417]” was run?
A: Its value is 0.04.

Q: With “NH2-KLALKLALKALKAALK-amide (H-KLALKLALKALKAALK-NH2) [PN418]” as the substance, how does the “TER(x)/TER(159) +/− SEM*” value [1, 4] read?
A: Its value is 1.05 +/− 0.05.

Q: What about the “Perm(x)/Perm(159) +/− SEM*” value [2, 4] of the same substance?
A: The value was 0.64.

Q: Which “TER(x)/TER(159) +/− SEM*” value [1, 4] does the source give for “NH2-KLALKLALKALKAALKLALK-amide (H-KLALKLALKALKAALKLALK-NH2) [PN419]” here?
A: Its value is 1.23 +/− 0.01.

Q: What about the “Perm(x)/Perm(159) +/− SEM*” value [2, 4] of the same substance?
A: The value was 0.74.

Q: What does the source list for “NH2-KLALKLALKALKAALKLALKLA-amide (H-KLALKLALKALKAALKLALKLA-NH2) [PN420]”?
A: TER(x)/TER(159) +/− SEM* [1, 4]: 0.77 +/− 0.05; Perm(x)/Perm(159) +/− SEM* [2, 4]: 0.24

Q: For “NH2-KLALKLALKALKAALKLALKLALK-amide (H-KLALKLALKALKAALKLALKLALK-NH2) [PN421]”, which “TER(x)/TER(159) +/− SEM*” value [1, 4] is on record?
A: Its value is 0.74 +/− 0.11.

Q: What about the “Perm(x)/Perm(159) +/− SEM*” value [2, 4] of the same substance?
A: Its value is 0.17.

Q: How did the “TER(x)/TER(159) +/− SEM*” value [1, 4] turn out when “NH2-KLALKLALKALKAALKLALKLALKAL-amide (H-KLALKLALKALKAALKLALKLALKAL-NH2) [PN422]” was run?
A: Its value is 0.47 +/− 0.07.

Q: And the “Perm(x)/Perm(159) +/− SEM*” value [2, 4]?
A: Its value is 0.07.

Q: Which “Relative TER Decrease” value ([1]; relative to PN159) does the source give for “NH2-KLAWKLALKALKAALKLA-amide (H-KLAWKLALKALKAALKLA-NH2) [PN0425, Single Tryptophan]” here?
A: Its value is 1.0.

Q: “NH2-KLAWKLALKALKAAWKLA-amide (H-KLAWKLALKALKAAWKLA-NH2) [PN0427, Two Tryptophan]” was tested. Which “Relative TER Decrease” value ([1]; relative to PN159) did it give?
A: The value was 1.0.

Q: For “NH2-KLAWKLAWKALKAAWKLA-amide (KLAWKLAWKALKAAWKLA-NH2) [PN028, Three Tryptophan]”, which “Relative TER Decrease” value ([1]; relative to PN159) is on record?
A: The value was 0.7.

Q: Which “TER reduction (in words)” value [1, 5] does the source give for “NH2-KLaLKlALkAlkAALkLA-amide (H-KL[dA]LK[dL]AL[dK]A[dL][dK]AAL[dK]LA-NH2) [PN434]” here?
A: Its value is “null activities”.

Q: And the “TER(x)/TER(159) +/− SEM” value [1, 6]?
A: Its value is 0.12 +/− 0.01.

Q: What about the “permeability enhancement (in words)” value [2, 5] of the same substance?
A: The value was “null activities”.

Q: What about the “Perm(x)/Perm(159) +/− SEM” value [2, 6] of the same substance?
A: Its value is 0.02 +/− 0.00.

Q: For “NH2-LKLLKKLLKKLLKLL-amide (H-LKLLKKLLKKLLKLL-NH2) [PN406, Leucine and Lysine rich]”, which “Relative TER Decrease” value ([1]; relative to PN159) is on record?
A: The value was 0.9.

Q: Which “Relative TER Decrease” value ([1]; relative to PN159) does the source give for “NH2-LKTLATALTKLAKTLTTL-amide (H-LKTLATALTKLAKTLTTL-NH2) [PN443, Threonine]” here?
A: Its value is 0.3.

Q: How did the “Relative TER Decrease” value ([1]; relative to PN159) turn out when “NH2-RLALRLALRALRAALRLA-amide (H-RLALRLALRALRAALRLA-NH2) [PN394, Argenine]” was run?
A: Its value is 0.7.

Q: For “NH2-RLAWRLALRALRAALRLA-amide (H-RLAWRLALRALRAALRLA-NH2) [PN395, Argenine and Single Tryptophan]”, which “Relative TER Decrease” value ([1]; relative to PN159) is on record?
A: The value was 0.8.

Reference: patent US20060062758A1, “Tight junction modulator peptide PN159 for enhanced mucosal delivery of therapeutic compounds” (Nastech Pharmaceutical Comapny Inc., priority 2004, published 2006)
